Source: the NIST ThermoML archive (doi:10.1021/acs.jced.7b01033)

Legend:
[1] = xn = mol fraction of the nth substance listed; details: 100.5 kPa, Liquid, Vibrating tube method
[2] = 100.5 kPa, Liquid, Vibrating tube method

CCCCCCn1cc(C)[n+](C)c1.O=S(=O)([N-]S(=O)(=O)C(F)(F)F)C(F)(F)F + CCCCCC[n+]1cn(C)cc1C.O=S(=O)([N-]S(=O)(=O)C(F)(F)F)C(F)(F)F
[1], x1 = 0.637
Details | mass density [kg/m3]
293.15 K | 1352.5
303.15 K | 1343.3
313.15 K | 1334.2
323.15 K | 1325.2
333.15 K | 1316.3
343.15 K | 1307.4
353.15 K | 1298.5

CCCCCCn1cc(C)[n+](C)c1CC.O=S(=O)([N-]S(=O)(=O)C(F)(F)F)C(F)(F)F + CCCCCC[n+]1c(C)cn(C)c1CC.O=S(=O)([N-]S(=O)(=O)C(F)(F)F)C(F)(F)F
[1], x1 = 0.813
Details | mass density [kg/m3]
293.15 K | 1325.2
303.15 K | 1316.2
313.15 K | 1307.3
323.15 K | 1298.5
333.15 K | 1289.7
343.15 K | 1281
353.15 K | 1272.3

CCCCn1cc(C)[n+](C)c1CC.O=S(=O)([N-]S(=O)(=O)C(F)(F)F)C(F)(F)F + CCCCn1c(C)c[n+](C)c1CC.O=S(=O)([N-]S(=O)(=O)C(F)(F)F)C(F)(F)F
[1], x1 = 0.806
Details | mass density [kg/m3]
293.15 K | 1371.2
303.15 K | 1361.9
313.15 K | 1352.8
323.15 K | 1343.7
333.15 K | 1334.7
343.15 K | 1325.8
353.15 K | 1316.9

CCCn1cc(C)[n+](C)c1.O=S(=O)([N-]S(=O)(=O)C(F)(F)F)C(F)(F)F + CCCn1c[n+](C)cc1C.O=S(=O)([N-]S(=O)(=O)C(F)(F)F)C(F)(F)F
[1], x1 = 0.629
Details | mass density [kg/m3]
293.15 K | 1445.4
303.15 K | 1435.6
313.15 K | 1425.9
323.15 K | 1416.3
333.15 K | 1406.9
343.15 K | 1397.3
353.15 K | 1387.9

CCCCn1cc(C)[n+](C)c1.O=S(=O)([N-]S(=O)(=O)C(F)(F)F)C(F)(F)F + CCCC[n+]1cn(C)cc1C.O=S(=O)([N-]S(=O)(=O)C(F)(F)F)C(F)(F)F
[1], x1 = 0.637
Details | mass density [kg/m3]
313.15 K | 1391.1
323.15 K | 1381
333.15 K | 1372.3
343.15 K | 1363.1
353.15 K | 1353.9

CCc1n(C)c(C)c[n+]1CC.O=S(=O)([N-]S(=O)(=O)C(F)(F)F)C(F)(F)F + CCc1n(C)cc(C)[n+]1CC.O=S(=O)([N-]S(=O)(=O)C(F)(F)F)C(F)(F)F
[1], x1 = 0.735
Details | mass density [kg/m3]
293.15 K | 1431.7
303.15 K | 1422
313.15 K | 1412.6
323.15 K | 1403.1
333.15 K | 1393.8
343.15 K | 1384.6
353.15 K | 1375.3

CC[n+]1cc(C)n(C)c1.O=S(=O)([N-]S(=O)(=O)C(F)(F)F)C(F)(F)F + CC[n+]1cn(C)cc1C.O=S(=O)([N-]S(=O)(=O)C(F)(F)F)C(F)(F)F
[1], x1 = 0.602
Details | mass density [kg/m3]
293.15 K | 1483.2
303.15 K | 1473.3
313.15 K | 1463.4
323.15 K | 1453.6
333.15 K | 1443.9
343.15 K | 1434.2
353.15 K | 1424.6

CCC[n+]1ccn(C)c1C.O=S(=O)([N-]S(=O)(=O)C(F)(F)F)C(F)(F)F
[2]
Details | mass density [kg/m3]
293.15 K | 1460
303.15 K | 1450.3
313.15 K | 1440.7
323.15 K | 1431.2
333.15 K | 1421.7
343.15 K | 1412.4
353.15 K | 1403

CCn1cc[n+](C)c1C.O=S(=O)([N-]S(=O)(=O)C(F)(F)F)C(F)(F)F
[2]
Details | mass density [kg/m3]
293.15 K | 1496.4
303.15 K | 1486.7
313.15 K | 1476.9
323.15 K | 1467.3
333.15 K | 1457.7
343.15 K | 1448.2
353.15 K | 1438.8

CCCCCCn1cc[n+](C)c1C.O=S(=O)([N-]S(=O)(=O)C(F)(F)F)C(F)(F)F
[2]
Details | mass density [kg/m3]
293.15 K | 1362.2
303.15 K | 1353.1
313.15 K | 1344.1
323.15 K | 1335.2
333.15 K | 1326.3
343.15 K | 1317.5
353.15 K | 1308.7

CCCCn1cc[n+](C)c1C.O=S(=O)([N-]S(=O)(=O)C(F)(F)F)C(F)(F)F
[2]
Details | mass density [kg/m3]
293.15 K | 1424
303.15 K | 1414.6
313.15 K | 1405.3
323.15 K | 1396
333.15 K | 1386.9
343.15 K | 1377.8
353.15 K | 1368.7

CCC[n+]1cc(C)n(C)c1CC.O=S(=O)([N-]S(=O)(=O)C(F)(F)F)C(F)(F)F + CCC[n+]1c(C)cn(C)c1CC.O=S(=O)([N-]S(=O)(=O)C(F)(F)F)C(F)(F)F
[1], x1 = 0.763
Details | mass density [kg/m3]
293.15 K | 1401.2
303.15 K | 1391.7
313.15 K | 1382.3
323.15 K | 1373
333.15 K | 1363.8
343.15 K | 1354.7
353.15 K | 1345.5
